# Measurements from patent publication US8580831B2, “Fluorinated aminotriazole derivatives” (Actelion Pharmaceuticals Ltd., priority 2009, dated 2013).
# How the values were obtained:
# human ALX receptor = molecular target: T1, human ALX receptor (Homo sapiens, UniProt P25090); assay: Intracellular calcium measurements (FLIPR), ALX receptor agonistic activity; assay type: cell-based; details: HEK293-hALXR-Ga16 cells, calcium flux, normalized to WKYMVm 10 nM; read-out: EC50 (agonistic activity with respect to the ALX receptor)
# T1 construct: expressed in transfected cells; host or cells: HEK293 (HEK293-hALXR-Ga16)
# T1 sequence (P25090 1-351): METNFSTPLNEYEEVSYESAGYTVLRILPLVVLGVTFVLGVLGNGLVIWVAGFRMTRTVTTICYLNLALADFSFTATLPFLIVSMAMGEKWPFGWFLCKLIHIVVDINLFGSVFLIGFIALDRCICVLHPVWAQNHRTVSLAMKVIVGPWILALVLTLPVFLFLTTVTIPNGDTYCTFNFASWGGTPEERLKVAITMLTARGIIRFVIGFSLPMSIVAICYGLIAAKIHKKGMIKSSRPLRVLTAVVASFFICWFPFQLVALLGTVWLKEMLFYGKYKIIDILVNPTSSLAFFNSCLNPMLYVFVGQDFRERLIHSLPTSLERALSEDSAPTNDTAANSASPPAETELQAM
# Protocol: The ALX receptor agonistic activity of the compounds of formula (I) is determined in accordance with the following experimental method.
# Intracellular Calcium Measurements:
# Cells expressing recombinant human ALX receptor and the G-protein Ga16 (HEK293-hALXR-Ga16) were grown to 80% confluency in Growing Medium (GM). Cells were detached from culture dishes with a cell dissociation buffer (Invitrogen, 13151-014), and collected by centrifugation at 1′000 rpm at rt for 5 min in Assay Buffer (AB) (equal parts of Hank's BSS (Gibco, 14065-049) and DMEM without Phenol Red (Gibco, 11880-028)). After 60 min incubation at 37° C. under 5% CO2 in AB supplemented with 1 μM Fluo-4 (AM) (Invitrogen, F14202) and 20 mM HEPES (Gibco, 15630-056), the cells were washed and resuspended in AB. They were then seeded onto 384-well FLIPR assay plates (Greiner, 781091) at 50′000 cells in 70 μl per well and sedimented by centrifugation at 1′000 rpm for 1 min. Stock solutions of test compounds were made up at a concentration of 10 mM in DMSO, and serially diluted in AB to concentrations required for activation dose response curves. WKYMVm (Phoenix Peptides) was used as a reference agonist. A FLIPR Tetra instrument (Molecular Devices) was operated according to the manufacturer's standard instructions, adding 4 μl of test compound dissolved at 10 mM in DMSO and diluted prior to the experiment in assay buffer to obtain the desired final concentration. Changes in fluorescence were monitored before and after the addition of test compounds at lex=488 nm and lem=540 nm. Emission peak values above base level after compounds addition were exported after base line subtraction. Values were normalized to high-level control (WKYMVm compound, 10 nM final concentration) after subtraction of the base line value (AB addition).
# [1] = test system: proteins of human liver microsomes (HLM); assay: Covalent binding between reactive metabolites and proteins using human liver microsomes; assay type: in vitro ADME
# Protocol: Assay for Covalent Binding Between Reactive Metabolites and Proteins Using Human Liver Microsomes
# The objective of the described covalent binding assay is to determine the amount of covalent binding between reactive metabolites and proteins of human liver microsomes (HLM) per hour following incubation in the presence of an NADPH regenerating system. The measured covalent binding rate is expressed in pmol bound drug equivalent/mg protein/h. It is a well-known advantage if compounds have a low tendency to bind covalently to proteins.
# The radiolabelled compounds (^3H or ^14C) were incubated at a concentration of 10 μM in a single 96 well plate with 1.0 mg/mL of human liver microsomes in 0.1 M phosphate buffer (pH 7.4). To this end, a volume of 2.5 μL 1 mM stock solution prepared in the respective solvent (ethanol) was added to a final volume of 250 μL. Incubations were performed in the absence or presence of the NADPH-regenerating system with glucose-6-phosphate dehydrogenase (20 IU/ml dehydrogenase, 25 μl with 11 mM NADP sodium salt, 100 mM glucose-6-phosphate disodium salt, 100 mM MgCl2 in 0.1 M Tris buffer, pH 7.4) and additionally in the absence or presence of 5 mM GSH to trap reactive intermediates. An initial blank value without NADPH without incubation was also determined to determine unspecific rapid binding. Reactions were initiated by addition of 25 μL of an NADPH-regenerating system and terminated after one hour by adding 200 μL of the incubation mixture on a multiscreen deep well solvinert 96 hydrophobic PTFE filter plate (Millipore, Zug, Switzerland) containing 260 μL of ice-cold acetonitrile. The precipitation of microsomal proteins was completed by shaking the plate at 600 rpm at a temperature of 15° C. for 15 min. Finally, the precipitated incubation was stored at 4° C. for 15 min in the fridge. Proteins and filtrates were separated by centrifugation at 1800 g for 20 min at 10° C. The protein pellet was washed to remove unspecific binding with 800 μL of methanol/0.1% sulfuric acid (v/v) by centrifugation at 1500 g, 10° C. and 2 min. The washing step was repeated six times. The washed protein pellet was redissolved by addition of 500 μL of aqueous 0.1% (w/v) NaOH/1% (w/v) SDS. The filter plate was shaken at 400 rpm for 45 min at 60° C. and centrifugated at 2000 g for 20 min at 35° C. This step was repeated once and the protein solutions were combined.
# For the determination of total radioactivity, an aliquot of 400 μL protein solution was mixed with 4 mL of liquid scintillation cocktail (Irga Safe plus, Perkin Elmer, Zurich, Switzerland) and analyzed using a Tricarb 2300 TR liquid scintillation analyzer (Perkin Elmer) with luminescence correction and on-line quenching correction by means of an external standard (^133Ba). For the determination of total protein content, an aliquot of 20 μL protein solution was analyzed using the BCA protein assay kit (Perbio Science Switzerland SA, Lausanne, Switzerland). The amount of covalent binding to microsomal proteins was calculated as follows: Dividing the determined amount of bound drug equivalent with NADPH (background subtracted by the amount of bound drug equivalent without NADPH) by the calculated amount of protein of redissolved washed protein pellet in each well gives the amount of bound drug equivalent in pmol/mg protein per hour.
EC50 (human ALX receptor) [nM],SMILES,other results
2.9,"Cc1nc(C(=O)Nc2cnn(Cc3nc(C(C)(F)F)co3)n2)c(-c2ccccc2)o1 [Example 33, 2-Methyl-5-phenyl-oxazole-4-carboxylic acid {2-[4-(1,1-difluoro-ethyl)-oxazol-2-ylmethyl]-2H-[1,2,3]triazol-4-yl}-amide]",–
6.1,"CN(C)c1cccc(-c2ocnc2C(=O)Nc2cnn(Cc3nc(C(C)(F)F)co3)n2)c1 [Example 34, 5-(3-Dimethylamino-phenyl)-oxazole-4-carboxylic acid {2-[4-(1,1-difluoro-ethyl)-oxazol-2-ylmethyl]-2H-[1,2,3]triazol-4-yl}-amide]",–
4,"CN(C)c1cc(-c2ocnc2C(=O)Nc2cnn(Cc3nc(C(C)(F)F)co3)n2)ccc1F [Example 35, 5-(3-Dimethylamino-4-fluoro-phenyl)-oxazole-4-carboxylic acid {2-[4-(1,1-difluoro-ethyl)-oxazol-2-ylmethyl]-2H-[1,2,3]triazol-4-yl}-amide]",–
77,"Cc1nc(C(=O)Nc2cnn(Cc3nc(C(C)(F)F)co3)n2)c(-c2ccc(F)c(N(C)C)c2)o1 [Example 36, 5-(3-Dimethylamino-4-fluoro-phenyl)-2-methyl-oxazole-4-carboxylic acid{2-[4-(1,1-difluoro-ethyl)-oxazol-2-ylmethyl]-2H-[1,2,3]triazol-4-yl}-amide]",–

# The next lines start with the compound.
SMILES,EC50 (human ALX receptor) [nM],other results
"Cc1nc(C(=O)Nc2cnn(Cc3ccc(C(C)(F)F)o3)n2)c(-c2cccc(OC(F)(F)F)c2)o1 [Example 27, 2-Methyl-5-(3-trifluoromethoxy-phenyl)-oxazole-4-carboxylic acid {2-[5-(1,1-difluoro-ethyl)-furan-2-ylmethyl]-2H-[1,2,3]triazol-4-yl}-amide]",59,–
"CC(F)(F)c1ccc(Cn2ncc(NC(=O)c3ncoc3-c3ccccc3)n2)o1 [Example 28, 5-Phenyl-oxazole-4-carboxylic acid {2-[5-(1,1-difluoro-ethyl)-furan-2-ylmethyl]-2H-[1,2,3]triazol-4-yl}-amide]",6,–
"Cc1nc(C(=O)Nc2cnn(Cc3nc(C(C)(F)F)cs3)n2)c(-c2cccc(Cl)c2)o1 [Example 29, 5-(3-Chloro-phenyl)-2-methyl-oxazole-4-carboxylic acid {2-[4-(1,1-difluoro-ethyl)-thiazol-2-ylmethyl]-2H-[1,2,3]triazol-4-yl}-amide]",5.6,–
"CCc1nc(C(=O)Nc2cnn(Cc3nc(C(C)(F)F)cs3)n2)c(-c2ccccc2)o1 [Example 30, 2-Ethyl-5-phenyl-oxazole-4-carboxylic acid {2-[4-(1,1-difluoro-ethyl)-thiazol-2-ylmethyl]-2H-[1,2,3]triazol-4-yl}-amide]",11,–
"Cc1cccc(-c2oc(C)nc2C(=O)Nc2cnn(Cc3nc(C(C)(F)F)co3)n2)c1 [Example 31, 2-Methyl-5-m-tolyl-oxazole-4-carboxylic acid {2-[4-(1,1-difluoro-ethyl)-oxazol-2-ylmethyl]-2H-[1,2,3]triazol-4-yl}-amide]",2.4,"Covalent binding profile compared to compounds of WO 2009/077990 ([1]; in words, versus examples 18 and 75 of WO 2009/077990): superior covalent binding profile; Covalent binding, HLM with NADPH and GSH ([1]; tritiated compound 10 μM, 1.0 mg/mL HLM, 1 h, with NADPH and 5 mM GSH): 28 pmol/mg protein per hour; Covalent binding, HLM with NADPH ([1]; tritiated compound 10 μM, 1.0 mg/mL HLM, 1 h, with NADPH-regenerating system): 22 pmol/mg protein per hour; Covalent binding, HLM without NADPH ([1]; tritiated compound 10 μM, 1.0 mg/mL HLM, 1 h, without NADPH): 3 pmol/mg protein per hour; Covalent binding, HLM with NADPH (background corrected as described above) [amount of bound drug equivalent] ([1]; tritiated compound 10 μM, 1.0 mg/mL HLM, 1 h, value without NADPH subtracted): 19 pmol/mg protein per hour"
"Cc1cccc(-c2oc(C)nc2C(=O)Nc2cnn(Cc3coc(C(C)(F)F)n3)n2)c1 [Example 32, N-(2-((2-(1,1-Difluoroethyl)oxazol-4-yl)methyl)-2H-1,2,3-triazol-4-yl)-2-methyl-5-(m-tolyl)oxazole-4-carboxamide]",12,–
